Assay results published in patent publication US8354436B2 (4SC Discovery GmbH, priority 2011, dated 2013).
Like-named read-outs stand apart in the source and are kept apart here.

Assays:
[1] = system: PBMC from healthy human donors; assay: T cell proliferation assay (PHA-stimulated human PBMC, BrdU ELISA); format: cell-based; details: PHA-stimulated human PBMC, 48 hours, column D, read-out: IC50 (Tcell proliferation)
Procedure: Cell proliferation was analysed using the BrdU based cell proliferation ELISA from Roche (Mannheim, Germany) according to the manufacturer's instructions. T Cell Proliferation Assay Peripheral blood mononuclear cells (PBMC) from healthy human donors were isolated by centrifugation over Ficoll-Hypaque (Sigma-Aldrich, Germany) according to manufacturer's instructions. Purified PBMC were washed twice with PBS and resuspended in RPMI1640 culture medium supplemented with 10% dialyzed heat inactivated fetal calf serum, 1.5 mM L-glutamine, 100 U penicillin/ml, and […] (all from PAN Biotech, Aidenbach, Germany). For stimulation, PBMC were seeded at 1×10^5 cells/well, activated with 2 μg/ml phytohaemagglutinin (PHA, Sigma) and incubated with the test compound. After 48 hours proliferation was measured using the BrdU based cell proliferation ELISA from Roche (Mannheim, Germany) according to the manual.

[2] = system: IFN-γ; assay: IFN-γ production by PHA-stimulated human PBMC (OptEIA human IFN-g ELISA); format: cell-based; details: 48 hours
Procedure: Analysis of Proliferation of and Cytokine Production by Human PBMC Stimulated with PHA
Peripheral blood mononuclear cells (PBMC) from healthy human donors were purified using Accuspin™ System-Histopaque-1077 (Sigma) according to the protocol recommended by the manufacturer. Purified PBMC were then washed twice with phosphate-buffered saline (PBS) and resuspended in RPMI1640 culture medium supplemented with 10% dialyzed heat inactivated fetal calf serum, 1.5 mM L-glutamine, 100 U penicillin/ml, and […] (all from PAN Biotech, Aidenbach, Germany). For stimulation, PBMC were seeded at 1×10^5 cells/well, activated with 2 μg/ml phytohaemagglutinin (PHA, Sigma) and incubated with the test compounds for 48 hours. IL-17A, IL-17F and INF-γ were then determined in the culture supernatant using a Luminex BioPlex system, following the manufacturer's instructions (BioRad, Munich, Germany). For screening, compounds were used at 10, 1, 0.1 and 0.01 μM. To determine the IC50, compounds were titrated semilogarithmically.
Cytokines were determined in the aforementioned culture supernatant using the following methods: IL-17AA/AF was measured using the Luminex BioPlex system (BioRad, Munich, Germany); IL-17AA using the human homodimer IL-17A ELISA Ready Set Go Kit from eBioscience (Frankfurt, Germany); IL-17FF using the human IL-17F ELI-Pair from Hölzel DiagnosticaGmBH (Köln, Germany); and IFN-γ using the OptEIA human IFN-g ELISA from BD Bioscience (Heidelberg, Germany), all following the manufacturer's instructions.

[3] = PHA-stimulated human PBMC, column C, read-out: IC50 (IFNγ)

SMILES	IC50 [1] [nM]	IC50 [2, 3] [nM]	further results
COC(=O)c1c(-c2c(F)cccc2Cl)noc1-c1cnn(-c2cccc(C(F)(F)F)c2)c1C(F)(F)F [Example I-82, methyl 3-(2-chloro-6-fluorophenyl)-5-(5-(trifluoromethyl)-1-(3-(trifluoromethyl)phenyl)-1H-pyrazol-4-yl)isoxazole-4-carboxylate]	1000 to 10000		
Fc1ccc(-n2ncc(-c3cc(-c4c(F)cccc4Cl)no3)c2C(F)(F)F)cc1 [Example I-25, 3-(2-chloro-6-fluorophenyl)-5-(1-(4-fluorophenyl)-5-(trifluoromethyl)-1H-pyrazol-4-yl)isoxazole]		1000 to 10000	
CCOc1cc(-n2ncc(-c3onc(-c4c(F)cccc4Cl)c3C(=O)OC)c2C(F)(F)F)ncn1 [Example I-116, methyl 3-(2-chloro-6-fluorophenyl)-5-(1-(6-ethoxypyrimidin-4-yl)-5-(trifluoromethyl)-1H-pyrazol-4-yl)isoxazole-4-carboxylate]	1000 to 10000		
COC(=O)c1c(-c2ccccc2)noc1-c1cnn(-c2ccc(OC(F)(F)F)cc2)c1C(F)(F)F [Example I-74, methyl 3-phenyl-5-(1-(4-(trifluoromethoxy)phenyl)-5-(trifluoromethyl)-1H-pyrazol-4-yl)isoxazole-4-carboxylate]	1000 to 10000		
COc1ccccc1-n1ncc(-c2onc(-c3c(F)cccc3Cl)c2Br)c1C(F)(F)F [IB-23, 4-bromo-3-(2-chloro-6-fluorophenyl)-5-(1-(2-methoxyphenyl)-5-(trifluoromethyl)-1H-pyrazol-4-yl)isoxazole]		1000 to 10000	
COC(=O)c1c(-c2c(F)cccc2Cl)noc1-c1cnn(-c2nccc(C(F)(F)F)n2)c1C(F)(F)F [Example I-67, methyl 3-(2-chloro-6-fluorophenyl)-5-(5-(trifluoromethyl)-1-(4-(trifluoromethyl)pyrimidin-2-yl)-1H-pyrazol-4-yl)isoxazole-4-carboxylate]	100 to 1000		
CCOC(=O)c1c(-c2onc(-c3c(F)cccc3Cl)c2C(=O)OC)cnn1-c1cc(F)cc(F)c1 [Example I-39, methyl 3-(2-chloro-6-fluorophenyl)-5-(1-(3,5-difluorophenyl)-5-(ethoxycarbonyl)-1-H-pyrazol-4-yl)isoxazole-4-carboxylate]	1000 to 10000		
O=C(O)c1c(-c2ccccc2F)noc1-c1cnn(-c2cccc(F)c2)c1C(F)(F)F [Example I-91, 3-(2-fluorophenyl)-5-(1-(3-fluorophenyl)-5-(trifluoromethyl)-1H-pyrazol-4-yl)isoxazole-4-carboxylic acid]	1000 to 10000		
COC(=O)c1c(-c2c(F)cccc2Cl)noc1-c1cnn(-c2ccc(OC(F)(F)F)cc2)c1C(F)(F)F [Example I-33, methyl 3-(2-chloro-6-fluorophenyl)-5-(1-(4-(trifluoromethoxy)phenyl)-5-(trifluoromethyl)-1H-pyrazol-4-yl)isoxazole-4-carboxylate]	1000 to 10000		
CNC(=O)c1c(-c2ccc(Cl)cc2)noc1-c1cnn(-c2cccc(F)c2)c1C(F)(F)F [Example I-75, 3-(4-chlorophenyl)-5-(1-(3-fluorophenyl)-5-(trifluoromethyl)-1H-pyrazol-4-yl)-N-methylisoxazole-4-carboxamide]		1000 to 10000	
CCOC(=O)c1c(-c2onc(-c3c(F)cccc3Cl)c2C(=O)OC)cnn1-c1c(F)c(F)cc(F)c1F [Example I-38, methyl 3-(2-chloro-6-fluorophenyl)-5-(5(ethoxycarbonyl)-1-(2,3,5,6-tetrafluorophenyl)-1H-pyrazol-4-yl)isoxazole-4-carboxylate]		1000 to 10000	
CCOC(=O)c1c(-c2onc(-c3c(F)cccc3Cl)c2C(=O)OC)cnn1-c1ccsc1C(=O)OC [Example I-15, methyl 3-(2-chloro-6-fluorophenyl)-5-(5-(ethoxycarbonyl)-1-(2-(methoxycarbonyl)thiophen-3-yl)-1H-pyrazol-4-yl)isoxazole-4-carboxylate]		1000 to 10000	
COC(=O)c1c(-c2ccc(Cl)cc2)noc1-c1cnn(-c2cccc(F)c2)c1C(F)(F)F [Example I-73, methyl 3-(4-chlorophenyl)-5-(1-(3-fluorophenyl)-5-(trifluoromethyl)-1H-pyrazol-4-yl)isoxazole-4-carboxylate]	1000 to 10000		
COC(=O)c1c(-c2c(F)cccc2Cl)noc1-c1cnn(-c2onc(-c3ccc(Cl)cc3)c2C(=O)OC)c1C(F)(F)F [Example I-131, methyl 3-(2-chloro-6-fluorophenyl)-5-{[1-(4-methoxycarbonyl-3-(4-chlorophenyl)isoxazol-5-yl)-5-trifluoromethyl-1H-pyrazol-4-yl]}-isoxazole-4-carboxylate]	1000 to 10000		
Fc1ccccc1-n1ncc(-c2onc(-c3c(F)cccc3Cl)c2C(=S)N2CCOCC2)c1C(F)(F)F [Example I-123, (3-(2-chloro-6-fluorophenyl)-5-(1-(2-fluorophenyl)-5-(trifluoromethyl)-1H-pyrazol-4-yl)isoxazol-4-yl)(morpholino)meth-anethione]		1000 to 10000	
CCOC(=O)c1c(-c2onc(-c3c(F)cccc3Cl)c2C(=O)OC)cnn1-c1ccc(OC(F)(F)F)cc1 [Example I-45, methyl 3-(2-chloro-6-fluoro-phenyl)-5-(5-(ethoxycarbonyl)-1-(4-(trifluoromethoxy)phenyl)1H-pyrazol-4-yl)isoxazole-4-carboxylate]		1000 to 10000	
COC(=O)c1c(-c2c(F)cccc2Cl)noc1-c1cnn(Cc2ccccn2)c1C(F)(F)F [Example I-101, methyl 3-(2-chloro-6-fluorophenyl)-5-(1-(pyridin-2-ylmethyl)-5-(trifluoromethyl)-1H-pyrazol-4-yl)isoxazole-4-carboxylate]		1000 to 10000	
COC(=O)c1c(-c2c(F)cccc2Cl)noc1-c1cnn(-c2ccc(OC)cc2)c1C(F)(F)F [Example I-79]		1000 to 10000	
O=C(O)c1c(-c2cccc(F)c2)noc1-c1cnn(-c2cccc(F)c2)c1C(F)(F)F [Example I-114, 3-(3-fluorophenyl)-5-(1-(3-fluorophenyl)-5-(trifluoromethyl)-1H-pyrazol-4-yl)isoxazole-4-carboxylic acid]		1000 to 10000	
CCOC(=O)c1c(-c2onc(-c3c(F)cccc3Cl)c2C(=O)OC)cnn1-c1ccccc1OC [Example I-40]		1000 to 10000	
COC(=O)c1c(-c2c(F)cccc2Cl)noc1-c1cnn(CCO)c1C(F)(F)F [Example I-83, methyl 3-(2-chloro-6-fluorophenyl)-5-(1-(2-hydroxyethyl)-5-(trifluoromethyl)-1H-pyrazol-4-yl)isoxazole-4-carboxylate]		1000 to 10000	
CCOC(=O)c1c(-c2ccc(Cl)c(Cl)c2)noc1-c1cnn(-c2cccc(F)c2)c1C(F)(F)F [Example I-99, ethyl 3-(3,4-dichlorophenyl)-5-(1-(3-fluorophenyl)-5-(trifluoromethyl)-1H-pyrazol-4-yl)isoxazole-4-carboxylate]		1000 to 10000	
COC(=O)c1c(-c2c(F)cccc2Cl)noc1-c1cnn(-c2ccccc2Br)c1C(F)(F)F [Example I-80, methyl 5-(1-(2-bromophenyl)-5-(trifluoromethyl)-1H-pyrazol-4-yl)-3-(2-chloro-6-fluorophenyl)isoxazole-4-carboxylate]		1000 to 10000	
Fc1cccc(Cl)c1-c1noc(-c2cnn(-c3ccccc3Cl)c2C(F)(F)F)c1-c1nnco1 [Example B-14, 2-(3-(2-chloro-6-fluorophenyl)-5-(1-(2-chlorophenyl)-5-(trifluoromethyl)-1H-pyrazol-4-yl)isoxazol-4-yl)-1,3,4-oxadiazole]			IC50 ([2]; human PBMC, 2 μg/ml PHA, read-out: C: IC50 (IFNγ)): 1000 to 10000 nM
CC(C)Cn1ncc(-c2onc(-c3c(F)cccc3Cl)c2C(=O)O)c1C(F)(F)F [IB-19, 3-(2-chloro-6-fluorophenyl)-5-(1-isobutyl-5-(trifluoromethyl)-1H-pyrazol-4-yl)isoxazole-4-carboxylic acid]		1000 to 10000	
COC(=O)c1c(-c2c(F)cccc2Cl)noc1-c1cnn(CCN2CCCCC2)c1C(F)(F)F [Example I-104, methyl 3-(2-chloro-6-fluorophenyl)-5-(1-(2-(piperidin-1-yl)ethyl)-5-(trifluoromethyl)-1H-pyrazol-4-yl)isoxazole-4-carboxylate]		1000 to 10000	
CC(=O)NNC(=O)c1c(-c2c(F)cccc2Cl)noc1-c1cnn(-c2ccccc2F)c1C(F)(F)F [Example I-142, N′-acetyl-3-(2-chloro-6-fluorophenyl)-5-(1-(2-fluorophenyl)-5-(trifluoromethyl)-1H-pyrazol-4-yl)isoxazole-4-carbohydrazide]		1000 to 10000	
